Reference: ChEMBL document CHEMBL1201862, “PubChem BioAssay data set” (2004)
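Dose response: 5 concentrations. Exposure: 48 h. Format: 96-well plates. Endpoint: linear interpolation; highest concentration if not reached. At the GI50, growth is halved.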 Active and inactive are the calls of the source. Cut-off read from the data, not from the text of the source: active = GI50 up to about 1.1 µM and inactive = higher.

What was measured:
Test in all cases: growth of human tumour cells (NCI), 48 h
SK-MEL-5 = tested on: SK-MEL-5
LOX IMVI = tested on: LOX IMVI
NCI-H23 = tested on: NCI-H23
OVCAR-8 = tested on: OVCAR-8
A549 = tested on: A549
HCC 2998 = tested on: HCC 2998
SF-295 = tested on: SF-295
RXF 393 = tested on: RXF 393
NCI-H226 = tested on: NCI-H226
KM12 = tested on: KM12
LXFL 529 = tested on: LXFL 529
SK-OV-3 = tested on: SK-OV-3
SW-620 = tested on: SW-620
KM-20L2 = tested on: KM-20L2
MOLT-4 = tested on: MOLT-4
HT-29 = tested on: HT-29
SN12C = tested on: SN12C
HCT-15 = tested on: HCT-15
UACC-62 = tested on: UACC-62
SR = tested on: SR
OVCAR-3 = tested on: OVCAR-3
TK-10 = tested on: TK-10
NCI-H522 = tested on: NCI-H522
HL-60 = tested on: HL-60
RPMI-8226 = tested on: RPMI-8226
COLO 205 = tested on: COLO 205
UACC-257 = tested on: UACC-257
SNB-19 = tested on: SNB-19
DLD-1 = tested on: DLD-1
CCRF-CEM = tested on: CCRF-CEM
Malme-3M = tested on: Malme-3M
M19-MEL = tested on: M19-MEL
SNB-78 = tested on: SNB-78
SF-268 = tested on: SF-268
IGROV-1 = tested on: IGROV-1
U-251 = tested on: U-251
DMS-114 = tested on: DMS-114
786-0 = tested on: 786-0
OVCAR-4 = tested on: OVCAR-4
DMS-273 = tested on: DMS-273
ACHN = tested on: ACHN
HOP-62 = tested on: HOP-62
HCT-116 = tested on: HCT-116
M14 = tested on: M14
UO-31 = tested on: UO-31
RXF 631 = tested on: RXF 631
A498 = tested on: A498
SK-MEL-28 = tested on: SK-MEL-28
HOP-18 = tested on: HOP-18
EKVX = tested on: EKVX
NCI-H460 = tested on: NCI-H460
SF-539 = tested on: SF-539
K562 = tested on: K562
OVCAR-5 = tested on: OVCAR-5
SK-MEL-2 = tested on: SK-MEL-2
XF498 = tested on: XF498
CAKI-1 = tested on: CAKI-1
SNB-75 = tested on: SNB-75
HOP-92 = tested on: HOP-92

Measured: GI50

COc1ccc(-c2cc(-c3ccccc3)c(C#N)c(=O)n2C2OC(CO)C(O)C(O)C2O)cc1 (stereo not given)
inactive: SK-MEL-5 > 100 µM | LOX IMVI > 100 µM | NCI-H23 > 100 µM | OVCAR-8 > 100 µM | A549 > 100 µM | HCC 2998 > 100 µM | SF-295 > 100 µM | RXF 393 > 100 µM | NCI-H226 > 100 µM | KM12 > 100 µM | LXFL 529 > 100 µM | SK-OV-3 > 100 µM | SW-620 > 100 µM | KM-20L2 > 100 µM | MOLT-4 > 100 µM | HT-29 > 100 µM | SN12C > 100 µM | UACC-62 > 100 µM | SR > 100 µM | OVCAR-3 > 100 µM | TK-10 > 100 µM | NCI-H522 > 100 µM | HL-60 > 100 µM | RPMI-8226 > 100 µM | COLO 205 > 100 µM | UACC-257 > 100 µM | SNB-19 > 100 µM | DLD-1 > 100 µM | CCRF-CEM > 100 µM | Malme-3M > 100 µM | M19-MEL > 100 µM | SNB-78 > 100 µM | SF-268 > 100 µM | IGROV-1 > 100 µM | U-251 > 100 µM | DMS-114 > 100 µM | 786-0 > 100 µM | OVCAR-4 > 100 µM | DMS-273 > 100 µM | ACHN > 100 µM | HOP-62 > 100 µM | HCT-116 > 100 µM | M14 > 100 µM | UO-31 > 100 µM | RXF 631 > 100 µM | A498 > 100 µM | SK-MEL-28 > 100 µM | HOP-18 > 100 µM | EKVX > 100 µM | NCI-H460 > 100 µM | SF-539 > 100 µM | K562 > 100 µM | OVCAR-5 > 100 µM
> 100 µM: HCT-15

CC(=O)NC(CCCNCc1ccccc1)C(=O)NCc1ccccc1 (stereo not given)
inactive: SK-MEL-5 > 100 µM | LOX IMVI > 100 µM | NCI-H23 > 100 µM | OVCAR-8 > 100 µM | A549 > 100 µM | HCC 2998 > 100 µM | SF-295 > 100 µM | RXF 393 > 100 µM | NCI-H226 > 100 µM | KM12 > 100 µM | LXFL 529 > 100 µM | SK-OV-3 > 100 µM | SW-620 > 100 µM | SK-MEL-2 > 100 µM | KM-20L2 > 100 µM | MOLT-4 > 100 µM | HT-29 > 100 µM | SN12C > 100 µM | UACC-62 > 100 µM | OVCAR-3 > 100 µM | XF498 > 100 µM | TK-10 > 100 µM | NCI-H522 > 100 µM | CAKI-1 > 100 µM | RPMI-8226 > 100 µM | COLO 205 > 100 µM | UACC-257 > 100 µM | SNB-19 > 100 µM | DLD-1 > 100 µM | CCRF-CEM > 100 µM | SNB-75 87.3 µM | Malme-3M > 100 µM | M19-MEL > 100 µM | SNB-78 82 µM | SF-268 > 100 µM | IGROV-1 > 100 µM | U-251 > 100 µM | DMS-114 > 100 µM | 786-0 > 100 µM | OVCAR-4 > 100 µM | DMS-273 > 100 µM | ACHN > 100 µM | HOP-62 > 100 µM | HCT-116 > 100 µM | M14 > 100 µM | HOP-92 > 100 µM | UO-31 > 100 µM | RXF 631 > 100 µM | A498 > 100 µM | SK-MEL-28 > 100 µM | EKVX > 100 µM | NCI-H460 > 100 µM | SF-539 > 100 µM | K562 > 100 µM | OVCAR-5 > 100 µM
> 100 µM: HCT-15

CCOc1ccc([Se][Se]c2ccc(OCC)cc2)cc1
82.4 µM: HCT-15
inactive: NCI-H23 11.5 µM | OVCAR-8 > 100 µM | A549 > 100 µM | HCC 2998 > 100 µM | SF-295 > 100 µM | RXF 393 35.5 µM | NCI-H226 44.2 µM | KM12 > 100 µM | LXFL 529 26 µM | SW-620 > 100 µM | SK-MEL-2 > 100 µM | KM-20L2 > 100 µM | SN12C > 100 µM | UACC-62 95.7 µM | SR > 100 µM | OVCAR-3 > 100 µM | TK-10 > 100 µM | NCI-H522 46 µM | CAKI-1 21 µM | RPMI-8226 28.1 µM | COLO 205 > 100 µM | SNB-19 > 100 µM | DLD-1 > 100 µM | SNB-75 96.4 µM | Malme-3M > 100 µM | M19-MEL 25.6 µM | SNB-78 32.7 µM | SF-268 70.1 µM | IGROV-1 94.4 µM | U-251 26.9 µM | DMS-114 20.7 µM | 786-0 > 100 µM | OVCAR-4 > 100 µM | DMS-273 79.1 µM | HCT-116 56.1 µM | M14 > 100 µM | UO-31 27.5 µM | RXF 631 44.5 µM | SK-MEL-28 > 100 µM | HOP-18 > 100 µM | EKVX > 100 µM | NCI-H460 > 100 µM | SF-539 > 100 µM | OVCAR-5 18.8 µM
